{"source": "the supplement of paper PMC10307832", "test_in_all_cases": "relative viability (nuclei count vs DMSO), 5 days (fraction); higher = more cells survive", "key": {"[1]": {"compound": "CCN1C(=O)C2=CC(=C(N=C2N(C1=O)C3CC3)N)C(=O)N", "in_short": "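Viability here means nuclei in treated wells divided by nuclei in vehicle wells, reported as the median across plates. Only plates with control CV below 25% and at least one doubling passed. Lung cancer cell lines in 1536-well plates were exposed to five √10-spaced library-drug doses for 5 days and counted from 4× Hoechst images in MetaXpress.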"}, "[2]": {"compound": "CCN1C(=O)C2=CC(=C(N=C2N(C1=O)C3CC3)N)C(=O)N + O=C(c1cc(Cc2n[nH]c(=O)c3ccccc23)ccc1F)N1CCN(C(=O)C2CC2)CC1 [Olaparib] (partner 8 µM)", "in_short": "(§1)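 Dosing by pin tool came one day after lung cancer cell lines were seeded in 1536-well plates, using either one drug or a fixed anchor-drug dose plus five library-drug doses (not always all listed) in √10 steps. After 5 days, nuclei were counted on 4× images. Relative viability is treated-well nuclei count divided by vehicle-well nuclei count, and values are medians of duplicate plates.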"}, "[3]": {"compound": "CCN1C(=O)C2=CC(=C(N=C2N(C1=O)C3CC3)N)C(=O)N + CS(=O)(=O)N1CCN(Cc2cc3nc(-c4cccc5[nH]ncc45)nc(N4CCOCC4)c3s2)CC1 [Pictilisib] (partner 1 µM)", "in_short": "as §1"}, "[4]": {"compound": "CCN1C(=O)C2=CC(=C(N=C2N(C1=O)C3CC3)N)C(=O)N + COc1cc2c(Oc3ccc(NC(=O)C4(C(=O)Nc5ccc(F)cc5)CC4)cc3F)ccnc2cc1OCCCN1CCOCC1 [Foretinib] (partner 0.25 µM)", "in_short": "as §1"}, "[5]": {"compound": "CCN1C(=O)C2=CC(=C(N=C2N(C1=O)C3CC3)N)C(=O)N + CC1(C)CCC(c2ccc(Cl)cc2)=C(CN2CCN(c3ccc(C(=O)NS(=O)(=O)c4ccc(N[C@H](CCN5CCOCC5)CSc5ccccc5)c(S(=O)(=O)C(F)(F)F)c4)cc3)CC2)C1 [Navitoclax] (partner 0.5 µM)", "in_short": "as §1"}, "[6]": {"compound": "CCN1C(=O)C2=CC(=C(N=C2N(C1=O)C3CC3)N)C(=O)N + CS(=O)(=O)CCNCc1ccc(-c2ccc3ncnc(Nc4ccc(OCc5cccc(F)c5)c(Cl)c4)c3c2)o1 [Lapatinib] (partner 2 µM)", "in_short": "as §1"}, "[7]": {"compound": "CCN1C(=O)C2=CC(=C(N=C2N(C1=O)C3CC3)N)C(=O)N + Cc1nc(NC(=O)N2CCC[C@H]2C(N)=O)sc1-c1ccnc(C(C)(C)C(F)(F)F)c1 [Alpelisib] (partner 2 µM)", "in_short": "as §1"}, "[8]": {"compound": "CCN1C(=O)C2=CC(=C(N=C2N(C1=O)C3CC3)N)C(=O)N + C[C@]1(O)C[C@@H](c2nc(-c3ccc4ccc(-c5ccccc5)nc4c3)c3c(N)nccn32)C1 [Linsitinib] (partner 1 µM)", "in_short": "as §1"}, "[9]": {"compound": "CCN1C(=O)C2=CC(=C(N=C2N(C1=O)C3CC3)N)C(=O)N + CC(C)C[C@H](NC(=O)[C@H](Cc1ccccc1)NC(=O)c1cnccn1)B(O)O [Bortezomib] (partner 0.002 µM)", "in_short": "as §1"}, "[10]": {"compound": "CCN1C(=O)C2=CC(=C(N=C2N(C1=O)C3CC3)N)C(=O)N + C[C@@H](Oc1cc(-c2cnn(C3CCNCC3)c2)cnc1N)c1c(Cl)ccc(F)c1Cl [Crizotinib] (partner 1 µM)", "in_short": "as §1"}}, "data": [{"cell line": "Calu-6", "values": [{"measurement": "relative viability", "setting": "[1]; 0.253 µM", "result": 0.963}, {"measurement": "relative viability", "setting": "[1]; 0.8 µM", "result": 1.01}, {"measurement": "relative viability", "setting": "[1]; 2.53 µM", "result": 0.902}, {"measurement": "relative viability", "setting": "[1]; 8 µM", "result": 0.905}, {"measurement": "relative viability", "setting": "[2]; first compound 0.253 µM", "result": 0.554}, {"measurement": "relative viability", "setting": "[2]; first compound 0.8 µM", "result": 0.573}, {"measurement": "relative viability", "setting": "[2]; first compound 2.53 µM", "result": 0.582}, {"measurement": "relative viability", "setting": "[2]; first compound 8 µM", "result": 0.566}, {"measurement": "relative viability", "setting": "[3]; first compound 0.253 µM", "result": 0.925}, {"measurement": "relative viability", "setting": "[3]; first compound 0.8 µM", "result": 0.819}, {"measurement": "relative viability", "setting": "[3]; first compound 2.53 µM", "result": 0.923}, {"measurement": "relative viability", "setting": "[3]; first compound 8 µM", "result": 1}, {"measurement": "relative viability", "setting": "[4]; first compound 0.253 µM", "result": 0.892}, {"measurement": "relative viability", "setting": "[4]; first compound 0.8 µM", "result": 0.809}, {"measurement": "relative viability", "setting": "[4]; first compound 2.53 µM", "result": 0.845}, {"measurement": "relative viability", "setting": "[4]; first compound 8 µM", "result": 0.803}, {"measurement": "relative viability", "setting": "[5]; first compound 0.253 µM", "result": 0.828}, {"measurement": "relative viability", "setting": "[5]; first compound 0.8 µM", "result": 0.822}, {"measurement": "relative viability", "setting": "[5]; first compound 2.53 µM", "result": 0.826}, {"measurement": "relative viability", "setting": "[5]; first compound 8 µM", "result": 0.883}, {"measurement": "relative viability", "setting": "[6]; first compound 0.253 µM", "result": 1.06}, {"measurement": "relative viability", "setting": "[6]; first compound 0.8 µM", "result": 1.05}, {"measurement": "relative viability", "setting": "[6]; first compound 2.53 µM", "result": 0.957}, {"measurement": "relative viability", "setting": "[6]; first compound 8 µM", "result": 0.997}, {"measurement": "relative viability", "setting": "[7]; first compound 0.253 µM", "result": 1.03}, {"measurement": "relative viability", "setting": "[7]; first compound 0.8 µM", "result": 0.876}, {"measurement": "relative viability", "setting": "[7]; first compound 2.53 µM", "result": 0.866}, {"measurement": "relative viability", "setting": "[7]; first compound 8 µM", "result": 0.925}, {"measurement": "relative viability", "setting": "[8]; first compound 0.253 µM", "result": 0.924}, {"measurement": "relative viability", "setting": "[8]; first compound 0.8 µM", "result": 0.946}, {"measurement": "relative viability", "setting": "[8]; first compound 2.53 µM", "result": 0.869}, {"measurement": "relative viability", "setting": "[8]; first compound 8 µM", "result": 0.866}, {"measurement": "relative viability", "setting": "[9]; first compound 0.253 µM", "result": 1}, {"measurement": "relative viability", "setting": "[9]; first compound 0.8 µM", "result": 0.954}, {"measurement": "relative viability", "setting": "[9]; first compound 2.53 µM", "result": 1.02}, {"measurement": "relative viability", "setting": "[9]; first compound 8 µM", "result": 0.958}, {"measurement": "relative viability", "setting": "[10]; first compound 0.253 µM", "result": 0.808}, {"measurement": "relative viability", "setting": "[10]; first compound 0.8 µM", "result": 0.81}, {"measurement": "relative viability", "setting": "[10]; first compound 2.53 µM", "result": 0.721}, {"measurement": "relative viability", "setting": "[10]; first compound 8 µM", "result": 0.805}]}, {"cell line": "EBC-1", "values": [{"measurement": "relative viability", "setting": "[1]; 0.253 µM", "result": 0.932}, {"measurement": "relative viability", "setting": "[1]; 0.8 µM", "result": 1.02}, {"measurement": "relative viability", "setting": "[1]; 2.53 µM", "result": 0.979}, {"measurement": "relative viability", "setting": "[1]; 8 µM", "result": 1.03}, {"measurement": "relative viability", "setting": "[2]; first compound 0.253 µM", "result": 0.7}, {"measurement": "relative viability", "setting": "[2]; first compound 0.8 µM", "result": 0.695}, {"measurement": "relative viability", "setting": "[2]; first compound 2.53 µM", "result": 0.618}, {"measurement": "relative viability", "setting": "[2]; first compound 8 µM", "result": 0.777}, {"measurement": "relative viability", "setting": "[3]; first compound 0.253 µM", "result": 0.35}, {"measurement": "relative viability", "setting": "[3]; first compound 0.8 µM", "result": 0.352}, {"measurement": "relative viability", "setting": "[3]; first compound 2.53 µM", "result": 0.335}, {"measurement": "relative viability", "setting": "[3]; first compound 8 µM", "result": 0.494}, {"measurement": "relative viability", "setting": "[4]; first compound 0.253 µM", "result": 0.105}, {"measurement": "relative viability", "setting": "[4]; first compound 0.8 µM", "result": 0.114}, {"measurement": "relative viability", "setting": "[4]; first compound 2.53 µM", "result": 0.104}, {"measurement": "relative viability", "setting": "[4]; first compound 8 µM", "result": 0.119}, {"measurement": "relative viability", "setting": "[5]; first compound 0.253 µM", "result": 0.441}, {"measurement": "relative viability", "setting": "[5]; first compound 0.8 µM", "result": 0.43}, {"measurement": "relative viability", "setting": "[5]; first compound 2.53 µM", "result": 0.451}, {"measurement": "relative viability", "setting": "[5]; first compound 8 µM", "result": 0.378}, {"measurement": "relative viability", "setting": "[6]; first compound 0.253 µM", "result": 0.186}, {"measurement": "relative viability", "setting": "[6]; first compound 0.8 µM", "result": 0.204}, {"measurement": "relative viability", "setting": "[6]; first compound 2.53 µM", "result": 0.206}, {"measurement": "relative viability", "setting": "[6]; first compound 8 µM", "result": 0.211}, {"measurement": "relative viability", "setting": "[7]; first compound 0.253 µM", "result": 0.84}, {"measurement": "relative viability", "setting": "[7]; first compound 0.8 µM", "result": 0.77}, {"measurement": "relative viability", "setting": "[7]; first compound 2.53 µM", "result": 0.78}, {"measurement": "relative viability", "setting": "[7]; first compound 8 µM", "result": 0.834}, {"measurement": "relative viability", "setting": "[8]; first compound 0.253 µM", "result": 0.851}, {"measurement": "relative viability", "setting": "[8]; first compound 0.8 µM", "result": 0.938}, {"measurement": "relative viability", "setting": "[8]; first compound 2.53 µM", "result": 0.808}, {"measurement": "relative viability", "setting": "[8]; first compound 8 µM", "result": 0.886}, {"measurement": "relative viability", "setting": "[9]; first compound 0.253 µM", "result": 0.496}, {"measurement": "relative viability", "setting": "[9]; first compound 0.8 µM", "result": 0.5}, {"measurement": "relative viability", "setting": "[9]; first compound 2.53 µM", "result": 0.489}, {"measurement": "relative viability", "setting": "[9]; first compound 8 µM", "result": 0.61}, {"measurement": "relative viability", "setting": "[10]; first compound 0.253 µM", "result": 0.163}, {"measurement": "relative viability", "setting": "[10]; first compound 0.8 µM", "result": 0.184}, {"measurement": "relative viability", "setting": "[10]; first compound 2.53 µM", "result": 0.208}, {"measurement": "relative viability", "setting": "[10]; first compound 8 µM", "result": 0.218}]}]}
